Assay results: patent US20220096473A1, “METHOD FOR TREATING AN ACUTE MYELOID LEUKEMIA” (PTC THERAPEUTICS, INC., priority 2019, published 2022)

Columns and labels:
[1] = system: MOLT human acute lymphoblastic leukemia (ALL) tumor cells; experiment: ALL mouse model, IV-inoculated MOLT human ALL tumor cells in NOD-SCID mice, survival; assay type: in vivo; settings: vehicle 70 days
Experimental: FIG. 6. Shown is a survival curve for an in vivo ALL (Acute Lymphocytic Leukemia) MOLT-4 (CD3 […]) xenograft tumor NSG mouse model after up to 160 days of treatment with Compound 2 vs. vs. mice treated with vehicle, Compound 1, doxorubicin (Dox) and cytarabine (Ara-C). Under various dosing regimens.
Male NOD-SCID mice were inoculated with MOLT human acute lymphoblastic leukemia (ALL) tumor cells from ATCC (1×10^7 cells in 200 μL PBS) by intravenous (IV) injection of 0.2 ml/mouse. Seven days after tumor inoculation, mice were randomized into seven groups of five mice per group, and each group was dosed as follows: (Group 1) orally administered vehicle of 0.5% HPMC and 0.1% Tween 80 daily, (Group 2) orally administered 10 mg/kg Compound 1 twice per week, (Group 3) orally administered 10 mg/kg Compound 2 daily, (Group 4) administered 1 mg/kg doxorubicin by intraperitoneal (IP) injection once per week, (Group 5) administered 0.5 mg/kg doxorubicin by IP injection once per week, (Group 6) administered 50 mg/kg Ara-C twice per week by IP injection, and (Group 7) administered 70 mg/kg Ara-C by IP injection once per week.

P31-Fujioka cell line = P31-Fujioka cell line xenograft survival in immunodeficient NRG-SGM3 mice; assay type: in vivo, mouse; settings: oral Compound 1 from ten days after injection, up to 34 days of treatment, n=5 mice per group, P<0.002
Experimental: FIG. 1. Shown is a survival curve for an in vivo P31-Fujioka cell line xenograft tumor […] mouse model after up to 34 days of treatment with Compound 1 vs. vehicle treated animals (n=5 mice per group, *P<0.002).
Immunodeficient mice (NRG-SGM3) were injected with the P31-Fujioka cell line. Ten days after injection, engraftment of P31 cells in mice was confirmed by flow-cytometric assessment of the human CD45 marker (data not shown). One cohort of mice was orally administered Compound 1 and an age and engraftment matched hohort was administered vehicle control.

p53 mutant mediated AML = settings: cited from earlier work
CALM-AF10-mediated AML = CALM-AF10-mediated AML leukemogenesis in mouse and human models; settings: in vitro and in vivo
leukemia cell growth = settings: mouse xenograft models; cited from earlier work
[2] = system: MOLM13 human AML tumor cells; experiment: AML mouse model, IV-inoculated human AML tumor cells in NOD-SCID mice, survival; assay type: in vivo
Experimental: FIG. 3. Shown is a survival curve for an in vivo AML NSG mouse model after up to 75 days of treatment with Compound 1 vs. vehicle treated mice (n=5 in vehicle group and n=2 in Compound 1 group).
FIG. 5. Shown is a survival curve for an in vivo AML NSG mouse model after up to 80 days of treatment with a combination of Compound 1 and Compound 2 vs. mice treated with vehicle, Compound 1 alone and Compound 2 alone
The following study was conducted in a mouse model of acute myeloid leukemia (AML) based on intravenous (IV) injection of human […] into male non-obese diabetic (NOD) severe combined immunodeficiency (SID) mice. MOLT-4 cells are CD3 positive. The NOD-SCID mice were obtained from Jackson Laboratory, Bar Harbor Me.
Male NOD-SCID mice were inoculated with MOLM13 human AML tumor cells from ATCC (5×10^6 cells in 200 μL PBS) by intravenous (IV) injection of 0.2 ml/mouse. Three days after tumor inoculation, mice were randomized into four groups of five mice per group, and each group was dosed as follows once each day: (Group 1) orally administered vehicle (0.5% HPMC), (Group 2) orally administered 12.5 mg/kg of Compound 1 in HPMC, (Group 3) orally administered 10 mg/kg of Compound 2 in HPMC, and (Group 4) orally administered a combination of 12.5 mg/kg of Compound 1 and 10 mg/kg of Compound 2 in HPMC for up to 75 days.

[3] = system: microtubule polymerization; experiment: Mechanistic studies of microtubule polymerization; assay type: biochemical
Excerpt: In addition, Compound 1 combines additively or synergistically with standard clinical regimens, yielding potent and durable cancer regression.

Question: Which “maximum number of days of survival” value ([1]; Group 6, 50 mg/kg IP twice per week) does the source give for `Nc1ccn([C@@H]2O[C@H](CO)[C@@H](O)[C@@H]2O)c(=O)n1` [Ara-C, cytarabine] here?
Answer: 65 days

Question: And the “maximum number of days of survival” value ([1]; Group 7, 70 mg/kg IP once per week)?
Answer: 70 days

Question: Which “latency of disease (survival curve) vs vehicle control” value (P31-Fujioka cell line) does the source give for `Cc1nc2ccc(F)cc2n1-c1nc(N)c(F)c(Nc2ccc(C(F)(F)F)cc2)n1` [Compound 1, 5-fluoro-2-(6-fluoro-2-methyl-1H-benzo[d]imidazol-1-yl)-N^4-[4-(trifluoromethyl)phenyl]pyrimidine-4,6-diamine] here?
Answer: significantly delayed the latency of disease

Question: And the MCL-1 expression (p53 mutant mediated AML; p53 mutant mediated AML)?
Answer: reduced MCL-1 expression

Question: And the induction of apoptosis (p53 mutant mediated AML; patient-derived CD34+CD38low/- stem/progenitor cells)?
Answer: Apoptosis was induced in a p53-independent manner

Question: And the leukemogenesis (CALM-AF10-mediated AML)?
Answer: impairs leukemogenesis in vitro and in vivo

Question: What about the “in vivo anti-leukemia activity” value (leukemia cell growth) of the same molecule?
Answer: inhibited leukemia cell growth in vivo while sparing normal hematopoietic cells

Question: And the “maximum number of days of survival” value ([1]; Group 2, 10 mg/kg orally twice per week)?
Answer: 65 days

Question: What about the “survival vs mice administered Compound 2 alone” value ([2]; 12.5 mg/kg Compound 1 orally once each day) of the same molecule?
Answer: survived significantly longer

Question: What about the “survival (prolongation of life) vs vehicle” value ([2]; 12.5 mg/kg orally once each day in HPMC, up to 75 days) of the same molecule?
Answer: significant prolongation of life

Question: And the microtubule polymerization [3]?
Answer: inhibit microtubule polymerization

Question: Which results are given for `COc1cccc2c1C(=O)c1c(O)c3c(c(O)c1C2=O)C[C@@](O)(C(=O)CO)C[C@@H]3O[C@H]1C[C@H](N)[C@H](O)[C@H](C)O1` [doxorubicin]?
Answer: maximum number of days of survival ([1]; Group 4, 1 mg/kg IP once per week): 40 days; maximum number of days of survival ([1]; Group 5, 0.5 mg/kg IP once per week): 40 days

Question: For `COc1ccc([C@H]2c3[nH]c4ccc(Cl)cc4c3CCN2C(=O)Oc2ccc(Cl)cc2)cc1` [Compound 2, 4-chlorophenyl (S)-6-chloro-1-(4-methoxyphenyl)-1,3,4,9-tetrahydro-2H-pyrido[3,4-b]indole-2-carboxylate], which “maximum number of days of survival” value ([1]; Group 3, 10 mg/kg orally daily) is on record?
Answer: 160 days
